Here are results for 1 compound from patent US5616556A, “Method of treating rheumatoid arthritis and osteoarthrosis using tetrahydro WS9326A” (Fujisawa Pharmaceutical Co., Ltd., priority 1990, dated 1997).

The structures appear in SMILES notation. Starred links: 1 amine or outer side, 2 acyl side, 3 side chain; linkers in the order of their positions; H or OH if unused. Positions of bridges follow the written chain, without caps; N, C: chain ends. Non-standard residues stand in square brackets, D forms with d. Residues, ends and D or L forms follow the SMILES beside them. *: point of attachment. X2 = CN(/C(=C/c1ccc(O)cc1)C(=O)[*:2])[*:1]; aThr = C[C@H](O)[C@H](N)C(=O)O; X1 = CCCCCc1ccccc1CCC(=O)*

The subject of series [1] is dogs. To be noted: dog, in vivo, 12 mg/kg.
Experimental: (§1) An injectable suspension containing the test compound and other ingredients mentioned below was administered into the knee joint of rabbits (6 males and 6 females) and dogs (3 males and 3 females) twice a week for 4 weeks. The dose was 8 mg/kg for rabbits and 12 mg/kg for dogs.
In series [2] the test system is rabbits. The note with it: rabbit, in vivo, 8 mg/kg.
Experimental: as §1

`CCCCCc1ccccc1CCC(=O)N[C@@H]1C(=O)N(C)/C(=C/c2ccc(O)cc2)C(=O)N[C@@H](CC(C)C)C(=O)N[C@H](Cc2ccccc2)C(=O)N[C@@H]([C@H](C)O)C(=O)N[C@@H](CC(N)=O)C(=O)N[C@@H](CO)C(=O)O[C@@H]1C` [tetrahydro-WS9326A] (X1-T[X2]L[dF][aThr]NS; ester 1-C): the death entry in series [1] and in series [2] was “caused death in neither rabbits nor dogs” each time.
